Assay results as given in US20220347168A1, “LUNG TARGETED ANTICANCER THERAPIES WITH LIPOSOMAL ANNAMYCIN” (Board of Regents, The University of Texas System, priority 2019, published 2022).

How the values were obtained:
[1] = tested on: multidrug resistant (MDR) cell lines; conditions: earlier studies; cited from earlier work
P-glycoprotein 1 (P-gp) = P-glycoprotein 1 (P-gp) (Homo sapiens, UniProt P08183); conditions: earlier studies; cited from earlier work
[2] = Pharmacokinetic and organ distribution studies of Annamycin and L-Annamycin; assay type: in vivo; conditions: CD-1, mouse, lung and plasma, intravenous, 4 mg/kg; AUC, 24 h; read-out: Annamycin levels (AUC, 24 h) in lungs relative to plasma

P-glycoprotein 1 (P-gp), sequence (P08183 whole entry, species assumed): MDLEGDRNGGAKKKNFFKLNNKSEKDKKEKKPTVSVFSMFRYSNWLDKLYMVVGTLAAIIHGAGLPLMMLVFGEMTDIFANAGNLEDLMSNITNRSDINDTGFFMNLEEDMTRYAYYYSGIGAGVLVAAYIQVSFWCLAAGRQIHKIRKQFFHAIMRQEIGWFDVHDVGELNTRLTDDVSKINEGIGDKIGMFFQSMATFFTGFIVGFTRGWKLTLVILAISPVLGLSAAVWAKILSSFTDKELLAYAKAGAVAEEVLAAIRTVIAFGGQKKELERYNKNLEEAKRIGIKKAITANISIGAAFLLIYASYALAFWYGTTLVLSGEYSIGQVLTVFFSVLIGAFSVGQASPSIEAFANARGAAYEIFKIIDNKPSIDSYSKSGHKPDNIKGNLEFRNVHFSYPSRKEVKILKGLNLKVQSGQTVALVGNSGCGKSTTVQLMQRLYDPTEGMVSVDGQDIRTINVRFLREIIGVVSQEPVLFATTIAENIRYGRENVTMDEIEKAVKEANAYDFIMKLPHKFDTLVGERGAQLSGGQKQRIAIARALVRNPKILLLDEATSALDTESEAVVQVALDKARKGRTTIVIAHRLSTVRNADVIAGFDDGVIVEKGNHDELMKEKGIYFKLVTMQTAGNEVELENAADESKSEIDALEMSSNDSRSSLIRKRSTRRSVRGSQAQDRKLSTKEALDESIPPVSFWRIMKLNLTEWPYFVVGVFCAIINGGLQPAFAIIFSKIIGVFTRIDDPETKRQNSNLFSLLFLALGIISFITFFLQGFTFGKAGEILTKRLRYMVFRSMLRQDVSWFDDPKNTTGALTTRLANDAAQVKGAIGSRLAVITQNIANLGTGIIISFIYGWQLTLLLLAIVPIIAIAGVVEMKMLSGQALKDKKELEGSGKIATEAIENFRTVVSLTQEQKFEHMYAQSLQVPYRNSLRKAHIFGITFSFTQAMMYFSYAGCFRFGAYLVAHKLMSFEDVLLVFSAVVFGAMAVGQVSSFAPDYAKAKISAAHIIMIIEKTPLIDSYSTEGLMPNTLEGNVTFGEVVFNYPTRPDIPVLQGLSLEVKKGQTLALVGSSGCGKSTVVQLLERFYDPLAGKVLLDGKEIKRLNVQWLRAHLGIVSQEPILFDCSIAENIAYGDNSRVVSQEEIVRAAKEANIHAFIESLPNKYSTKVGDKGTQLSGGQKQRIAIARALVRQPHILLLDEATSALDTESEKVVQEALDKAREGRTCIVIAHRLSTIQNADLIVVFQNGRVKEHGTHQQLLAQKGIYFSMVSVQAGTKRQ

C[C@@H]1O[C@@H](O[C@H]2C[C@](O)(C(=O)CO)Cc3c(O)c4c(c(O)c32)C(=O)c2ccccc2C4=O)[C@H](I)[C@H](O)[C@H]1O [Annamycin, (7S,9S)-7-(((2R,3R,4R,5R,6S)-4,5-dihydroxy-3-iodo-6-methyltetrahydro-2H-pyran-2-yl)oxy)-6,9,11-trihydroxy-9-(2-hydroxyacetyl)-7,8,9,10-tetrahydrotetracene-5,12-dione]
cross-resistance with doxorubicin (DOX) [1]: not cross-resistant
substrate for P-glycoprotein 1 (P-gp) (P-glycoprotein 1 (P-gp)): poor substrate
Kp [2]: > 10
